According to article PMC6407917, “Identification of GSK3186899/DDD853651 as a Preclinical Development Candidate for the Treatment of Visceral Leishmaniasis” (Journal of Medicinal Chemistry, 2018):

What was measured:
Assay in all cases: biochemical
Design in all cases: species or system HEK293/K-562/placenta mixed human extract; Kinobeads chemoproteomic competition binding, quantified by TMT LC-MS/MS, dose response up to 20 uM
RPS6KA6 = RPS6KA6 (Homo sapiens, UniProt Q9UK32)
GSK3A = GSK3A (Homo sapiens, UniProt P49840)
FN3K = FN3K (Homo sapiens, UniProt Q9H479)
CAMK2D = CAMK2D (Homo sapiens, UniProt Q13557)
Sequence of CAMK2D (Q13557 whole entry): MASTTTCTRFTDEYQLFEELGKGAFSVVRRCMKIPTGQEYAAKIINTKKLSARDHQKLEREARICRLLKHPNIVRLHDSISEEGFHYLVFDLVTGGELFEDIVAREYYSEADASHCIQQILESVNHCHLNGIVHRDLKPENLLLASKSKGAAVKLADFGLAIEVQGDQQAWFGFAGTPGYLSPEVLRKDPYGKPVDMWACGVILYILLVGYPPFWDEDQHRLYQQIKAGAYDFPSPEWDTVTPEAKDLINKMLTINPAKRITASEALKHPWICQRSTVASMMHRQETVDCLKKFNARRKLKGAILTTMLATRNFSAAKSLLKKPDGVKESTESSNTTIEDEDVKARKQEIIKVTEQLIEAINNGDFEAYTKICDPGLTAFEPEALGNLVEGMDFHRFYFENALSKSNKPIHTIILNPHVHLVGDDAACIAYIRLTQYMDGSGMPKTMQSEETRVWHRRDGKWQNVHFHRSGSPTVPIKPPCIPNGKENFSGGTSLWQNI

RIPK2 = RIPK2 (Homo sapiens, UniProt O43353)
YWHAG = YWHAG (Homo sapiens, UniProt P61981)
TTK = TTK (Homo sapiens, UniProt P33981)
CSNK2B = CSNK2B (Homo sapiens, UniProt P67870)
Sequence of CSNK2B (P67870 whole entry): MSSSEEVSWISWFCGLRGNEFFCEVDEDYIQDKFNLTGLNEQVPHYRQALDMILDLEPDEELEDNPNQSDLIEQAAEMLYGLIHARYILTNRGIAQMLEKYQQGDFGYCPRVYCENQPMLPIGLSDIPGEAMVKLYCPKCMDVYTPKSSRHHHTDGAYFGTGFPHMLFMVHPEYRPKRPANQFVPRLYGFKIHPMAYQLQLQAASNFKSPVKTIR

EGFR = EGFR (Homo sapiens, UniProt P00533)
PRKAA1 = PRKAA1 (Homo sapiens, UniProt Q13131)
CDK7 = CDK7 (Homo sapiens, UniProt P50613)
Sequence of CDK7 (P50613 whole entry): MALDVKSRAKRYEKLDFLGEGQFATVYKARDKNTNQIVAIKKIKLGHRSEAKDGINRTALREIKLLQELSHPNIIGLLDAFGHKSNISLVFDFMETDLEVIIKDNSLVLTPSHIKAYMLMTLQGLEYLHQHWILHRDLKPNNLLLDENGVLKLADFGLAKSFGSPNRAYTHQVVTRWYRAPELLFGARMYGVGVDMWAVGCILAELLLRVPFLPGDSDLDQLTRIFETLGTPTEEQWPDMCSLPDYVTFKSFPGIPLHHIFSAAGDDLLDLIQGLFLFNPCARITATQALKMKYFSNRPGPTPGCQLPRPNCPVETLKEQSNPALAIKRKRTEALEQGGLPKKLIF

STK11 = STK11 (Homo sapiens, UniProt Q15831)
Sequence of STK11 (Q15831 whole entry): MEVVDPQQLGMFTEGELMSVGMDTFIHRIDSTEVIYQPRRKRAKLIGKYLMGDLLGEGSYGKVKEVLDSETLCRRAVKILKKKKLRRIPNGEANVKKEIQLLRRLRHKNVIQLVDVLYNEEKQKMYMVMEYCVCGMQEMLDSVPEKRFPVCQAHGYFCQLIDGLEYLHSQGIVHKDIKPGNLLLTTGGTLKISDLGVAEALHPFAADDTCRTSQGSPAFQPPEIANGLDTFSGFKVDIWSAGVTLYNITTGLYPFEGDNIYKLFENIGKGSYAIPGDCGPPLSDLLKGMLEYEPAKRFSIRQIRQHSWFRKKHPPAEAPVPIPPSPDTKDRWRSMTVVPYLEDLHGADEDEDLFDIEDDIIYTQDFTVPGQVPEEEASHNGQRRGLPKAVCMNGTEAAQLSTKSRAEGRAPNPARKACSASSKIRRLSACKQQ

NEK3 = NEK3 (Homo sapiens, UniProt P51956)
MAPK14 = MAPK14 (Homo sapiens, UniProt Q16539)
DDR2 = DDR2 (Homo sapiens, UniProt Q16832)
PRKG1 = PRKG1 (Homo sapiens, UniProt Q13976)
Sequence of PRKG1 (Q13976 whole entry): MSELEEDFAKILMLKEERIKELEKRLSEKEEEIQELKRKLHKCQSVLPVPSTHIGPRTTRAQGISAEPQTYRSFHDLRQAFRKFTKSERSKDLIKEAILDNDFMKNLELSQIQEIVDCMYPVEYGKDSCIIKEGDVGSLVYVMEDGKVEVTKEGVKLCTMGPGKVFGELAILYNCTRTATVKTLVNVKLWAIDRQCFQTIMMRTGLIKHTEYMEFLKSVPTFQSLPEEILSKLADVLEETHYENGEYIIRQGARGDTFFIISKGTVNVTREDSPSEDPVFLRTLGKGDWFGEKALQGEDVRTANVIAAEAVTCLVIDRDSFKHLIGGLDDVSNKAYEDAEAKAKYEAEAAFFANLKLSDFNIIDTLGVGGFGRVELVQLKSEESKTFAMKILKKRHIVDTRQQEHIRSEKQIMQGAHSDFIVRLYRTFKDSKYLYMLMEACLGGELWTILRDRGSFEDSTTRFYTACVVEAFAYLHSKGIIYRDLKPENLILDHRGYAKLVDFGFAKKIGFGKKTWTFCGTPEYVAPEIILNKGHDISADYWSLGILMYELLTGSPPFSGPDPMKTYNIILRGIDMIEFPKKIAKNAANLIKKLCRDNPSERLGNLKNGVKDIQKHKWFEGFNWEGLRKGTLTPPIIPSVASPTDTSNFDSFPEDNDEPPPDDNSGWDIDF

PRKDC = PRKDC (Homo sapiens, UniProt P78527)
MAP3K6 = MAP3K6 (Homo sapiens, UniProt O95382)
MAPKAPK5 = MAPKAPK5 (Homo sapiens, UniProt Q8IW41)
CHUK = CHUK (Homo sapiens, UniProt O15111)
Sequence of CHUK (O15111 whole entry): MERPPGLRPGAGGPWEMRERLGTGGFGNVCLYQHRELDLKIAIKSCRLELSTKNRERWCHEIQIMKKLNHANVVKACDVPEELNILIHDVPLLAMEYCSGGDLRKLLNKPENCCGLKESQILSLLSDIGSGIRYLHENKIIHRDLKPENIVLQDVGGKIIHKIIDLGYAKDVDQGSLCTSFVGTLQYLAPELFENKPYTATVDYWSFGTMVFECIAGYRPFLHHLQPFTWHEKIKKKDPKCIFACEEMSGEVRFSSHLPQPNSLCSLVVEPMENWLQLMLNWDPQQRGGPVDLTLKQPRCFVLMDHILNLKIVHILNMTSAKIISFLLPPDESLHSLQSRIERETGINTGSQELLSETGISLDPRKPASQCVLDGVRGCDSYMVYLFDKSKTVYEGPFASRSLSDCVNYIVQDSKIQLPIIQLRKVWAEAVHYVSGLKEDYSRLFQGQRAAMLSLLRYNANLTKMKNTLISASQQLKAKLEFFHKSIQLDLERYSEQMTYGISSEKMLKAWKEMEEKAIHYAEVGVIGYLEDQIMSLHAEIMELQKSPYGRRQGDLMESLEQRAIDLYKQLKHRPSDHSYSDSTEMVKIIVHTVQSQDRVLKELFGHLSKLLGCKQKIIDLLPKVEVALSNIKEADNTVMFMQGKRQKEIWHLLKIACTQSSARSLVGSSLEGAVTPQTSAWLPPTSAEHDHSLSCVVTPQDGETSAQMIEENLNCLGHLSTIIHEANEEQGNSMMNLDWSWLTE

ROCK2 = ROCK2 (Homo sapiens, UniProt O75116)
Sequence of ROCK2 (O75116 whole entry): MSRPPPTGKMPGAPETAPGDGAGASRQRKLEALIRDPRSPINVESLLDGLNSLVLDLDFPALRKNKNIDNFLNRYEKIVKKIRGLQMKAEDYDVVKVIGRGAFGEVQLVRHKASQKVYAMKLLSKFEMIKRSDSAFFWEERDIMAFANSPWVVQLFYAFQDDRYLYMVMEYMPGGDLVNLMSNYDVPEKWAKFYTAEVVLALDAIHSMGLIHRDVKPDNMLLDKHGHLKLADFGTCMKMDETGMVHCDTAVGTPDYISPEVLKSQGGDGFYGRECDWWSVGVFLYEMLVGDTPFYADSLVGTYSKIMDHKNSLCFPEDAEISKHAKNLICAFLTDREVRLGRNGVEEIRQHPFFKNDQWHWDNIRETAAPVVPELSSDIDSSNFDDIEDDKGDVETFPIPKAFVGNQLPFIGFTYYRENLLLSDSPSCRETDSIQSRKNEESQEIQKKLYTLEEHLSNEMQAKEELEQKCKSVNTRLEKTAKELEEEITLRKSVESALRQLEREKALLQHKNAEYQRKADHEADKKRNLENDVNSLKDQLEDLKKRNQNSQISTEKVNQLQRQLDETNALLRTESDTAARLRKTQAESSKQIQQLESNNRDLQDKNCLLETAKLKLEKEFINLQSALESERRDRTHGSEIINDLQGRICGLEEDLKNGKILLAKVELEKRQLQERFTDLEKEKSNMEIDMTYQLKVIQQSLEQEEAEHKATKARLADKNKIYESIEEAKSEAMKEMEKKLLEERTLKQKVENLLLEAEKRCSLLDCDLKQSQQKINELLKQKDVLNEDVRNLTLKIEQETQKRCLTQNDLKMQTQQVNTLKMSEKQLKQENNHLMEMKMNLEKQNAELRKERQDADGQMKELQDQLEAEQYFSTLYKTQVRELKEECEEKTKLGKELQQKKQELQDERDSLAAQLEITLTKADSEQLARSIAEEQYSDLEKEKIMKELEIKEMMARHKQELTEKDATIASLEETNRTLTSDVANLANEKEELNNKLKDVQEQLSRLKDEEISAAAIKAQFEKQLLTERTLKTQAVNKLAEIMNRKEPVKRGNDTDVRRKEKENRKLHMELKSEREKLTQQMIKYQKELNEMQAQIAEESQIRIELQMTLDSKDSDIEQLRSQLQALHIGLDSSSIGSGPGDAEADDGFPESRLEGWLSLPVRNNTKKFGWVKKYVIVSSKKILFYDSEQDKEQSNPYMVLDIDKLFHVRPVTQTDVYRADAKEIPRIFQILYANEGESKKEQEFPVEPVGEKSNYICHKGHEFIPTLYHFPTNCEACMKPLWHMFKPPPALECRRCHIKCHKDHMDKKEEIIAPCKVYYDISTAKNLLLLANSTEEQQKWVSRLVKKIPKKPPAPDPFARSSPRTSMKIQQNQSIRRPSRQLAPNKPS

Sequence of RPS6KA6 (Q9UK32 whole entry): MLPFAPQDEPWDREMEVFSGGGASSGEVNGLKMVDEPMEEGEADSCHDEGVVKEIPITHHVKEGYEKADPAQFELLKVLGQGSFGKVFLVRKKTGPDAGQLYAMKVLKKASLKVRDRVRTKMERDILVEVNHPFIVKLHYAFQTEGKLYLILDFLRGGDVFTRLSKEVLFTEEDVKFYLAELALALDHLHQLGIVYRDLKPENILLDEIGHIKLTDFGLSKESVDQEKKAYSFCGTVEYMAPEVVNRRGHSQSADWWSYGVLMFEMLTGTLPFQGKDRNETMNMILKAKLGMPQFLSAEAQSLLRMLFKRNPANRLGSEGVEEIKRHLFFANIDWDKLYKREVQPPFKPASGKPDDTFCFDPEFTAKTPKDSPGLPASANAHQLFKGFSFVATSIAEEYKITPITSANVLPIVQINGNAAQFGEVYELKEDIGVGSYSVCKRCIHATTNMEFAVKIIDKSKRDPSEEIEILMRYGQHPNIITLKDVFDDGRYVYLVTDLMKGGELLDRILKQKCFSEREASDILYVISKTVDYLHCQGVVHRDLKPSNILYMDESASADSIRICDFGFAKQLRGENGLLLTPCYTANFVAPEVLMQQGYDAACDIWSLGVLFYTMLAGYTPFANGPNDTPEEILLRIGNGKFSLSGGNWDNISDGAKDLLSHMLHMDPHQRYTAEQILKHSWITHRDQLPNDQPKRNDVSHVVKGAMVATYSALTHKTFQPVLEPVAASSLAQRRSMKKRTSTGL

`COc1nc(N[C@H]2CC[C@H](NS(=O)(=O)CC(C)C)CC2)nc2[nH]nc(N3CCOC[C@H]3C)c12` [compound 39, N-(trans-4-((4-Methoxy-3-((R)-3-methylmorpholino)-1H-pyrazolo[3,4-d]pyrimidin-6-yl)amino)cyclohexyl)-2-methylpropane-1-sulfonamide] showed an IC50 (RPS6KA6) of no less than 20 µM, an IC50 (GSK3A) of no less than 20 µM and an IC50 (FN3K) of no less than 20 µM. For the same compound, the IC50 (CAMK2D) was no less than 20 µM, the IC50 (RIPK2) was no less than 20 µM and the IC50 (YWHAG) was no less than 20 µM. The IC50 (TTK) was no less than 20 µM, the IC50 (CSNK2B) was no less than 20 µM and the IC50 (EGFR) was no less than 20 µM. For the same compound, the IC50 (PRKAA1) was no less than 20 µM, the IC50 (CDK7) was 2500 nM and the IC50 (STK11) was no less than 20 µM. It also gave an IC50 (NEK3) of no less than 20 µM, an IC50 (MAPK14) of no less than 20 µM and an IC50 (DDR2) of no less than 20 µM. The IC50 (PRKG1) was no less than 20 µM, the IC50 (PRKDC) was no less than 20 µM and the IC50 (MAP3K6) was no less than 20 µM. The IC50 (MAPKAPK5) was 6.2 µM, the IC50 (CHUK) was no less than 20 µM and the IC50 (ROCK2) was no less than 20 µM.
